Data reported in patent US8372845B2, “Pyrazine derivatives as enac blockers” (Novartis AG, priority 2010, dated 2013).
Counter-ions that a name gives are not always drawn.

Experiments:
[1] = biological target: T1, epithelial sodium channel (ENaC) (Homo sapiens, UniProt P37088+P51168+P51170); test: Short circuit current (ISC) measurements in Human Bronchial Epithelial cells (HBEC-ENaC); type: cell-based; conditions: inhibition of amiloride-sensitive ISC, HBECs at air-liquid interface, Ussing chamber, apical addition
T1 construct: host or cells: primary Human Bronchial Epithelial cells (HBECs), differentiated at air-liquid interface
T1 sequence (P37088 1-669): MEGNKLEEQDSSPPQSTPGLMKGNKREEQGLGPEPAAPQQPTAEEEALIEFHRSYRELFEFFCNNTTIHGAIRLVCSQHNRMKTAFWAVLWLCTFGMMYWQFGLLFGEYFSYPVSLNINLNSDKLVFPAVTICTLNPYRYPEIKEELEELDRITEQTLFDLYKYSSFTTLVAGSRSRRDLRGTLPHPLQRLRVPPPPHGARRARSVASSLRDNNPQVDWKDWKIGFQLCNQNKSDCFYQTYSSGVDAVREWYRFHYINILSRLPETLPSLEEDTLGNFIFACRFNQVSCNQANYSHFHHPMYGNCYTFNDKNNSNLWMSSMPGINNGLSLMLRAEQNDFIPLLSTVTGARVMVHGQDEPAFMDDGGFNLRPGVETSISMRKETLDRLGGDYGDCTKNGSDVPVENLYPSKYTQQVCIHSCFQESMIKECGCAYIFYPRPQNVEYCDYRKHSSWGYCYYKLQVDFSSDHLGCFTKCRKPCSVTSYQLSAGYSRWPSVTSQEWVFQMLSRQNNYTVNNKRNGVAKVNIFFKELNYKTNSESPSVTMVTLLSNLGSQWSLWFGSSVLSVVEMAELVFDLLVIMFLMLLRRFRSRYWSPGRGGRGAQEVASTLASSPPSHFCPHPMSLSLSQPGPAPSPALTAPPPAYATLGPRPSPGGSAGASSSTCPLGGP
T1 sequence (P51168 1-640): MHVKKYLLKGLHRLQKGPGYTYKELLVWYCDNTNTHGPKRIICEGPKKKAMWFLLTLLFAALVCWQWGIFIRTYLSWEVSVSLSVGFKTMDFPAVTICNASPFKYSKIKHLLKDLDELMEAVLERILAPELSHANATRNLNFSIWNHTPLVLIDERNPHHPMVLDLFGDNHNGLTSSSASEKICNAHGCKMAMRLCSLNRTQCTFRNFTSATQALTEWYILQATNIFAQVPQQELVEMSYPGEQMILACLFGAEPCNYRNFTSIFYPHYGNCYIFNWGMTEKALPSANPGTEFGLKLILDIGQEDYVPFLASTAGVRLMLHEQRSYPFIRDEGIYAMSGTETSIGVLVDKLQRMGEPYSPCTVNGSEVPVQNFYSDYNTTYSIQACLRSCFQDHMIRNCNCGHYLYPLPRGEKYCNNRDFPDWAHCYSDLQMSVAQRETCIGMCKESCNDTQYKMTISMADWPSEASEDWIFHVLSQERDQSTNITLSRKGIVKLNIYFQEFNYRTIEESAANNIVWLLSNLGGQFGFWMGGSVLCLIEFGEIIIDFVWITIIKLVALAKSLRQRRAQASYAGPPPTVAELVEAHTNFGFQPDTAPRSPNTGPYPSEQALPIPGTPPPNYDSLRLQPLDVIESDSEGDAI
T1 sequence (P51170 1-649): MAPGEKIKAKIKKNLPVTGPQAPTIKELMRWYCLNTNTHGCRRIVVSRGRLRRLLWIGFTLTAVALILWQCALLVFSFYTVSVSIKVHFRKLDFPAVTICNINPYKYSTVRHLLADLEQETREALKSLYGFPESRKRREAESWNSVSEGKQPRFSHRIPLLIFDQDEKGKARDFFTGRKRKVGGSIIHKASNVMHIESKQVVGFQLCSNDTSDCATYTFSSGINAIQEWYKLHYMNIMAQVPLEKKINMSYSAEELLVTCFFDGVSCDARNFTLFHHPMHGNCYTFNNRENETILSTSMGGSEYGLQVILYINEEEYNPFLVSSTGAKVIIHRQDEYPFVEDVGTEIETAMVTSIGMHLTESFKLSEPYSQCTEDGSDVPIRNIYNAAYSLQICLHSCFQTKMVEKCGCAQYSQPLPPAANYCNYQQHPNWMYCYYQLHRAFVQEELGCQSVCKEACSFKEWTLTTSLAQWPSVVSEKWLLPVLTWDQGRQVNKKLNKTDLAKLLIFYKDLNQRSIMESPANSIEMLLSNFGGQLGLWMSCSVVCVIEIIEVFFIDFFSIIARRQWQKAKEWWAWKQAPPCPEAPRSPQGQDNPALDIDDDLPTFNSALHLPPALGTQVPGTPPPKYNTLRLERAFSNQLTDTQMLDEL
Method: Human Bronchial Epithelial cells (HBECs) (Cambrex) were cultured under air-liquid interface conditions to provide a well differentiated mucociliary phenotype.
Medium was changed every 48 hours until cells were 90% confluent. […] Cells were maintained submerged for the first 7 days in culture, after which time they were exposed to an apical air interface for the remainder of the culture period. At this time, media was changed to DMEM:F12 media containing 2% v/v Ultroser G for the remainder of culture. Amphotericin B was removed from all media 3 feeds prior to use in the Ussing Chambers. Cells were used between days 7 and 21 after establishment of the apical-air interface. At all stages of culture, cells were maintained at 37° C. in 5% CO2 in an air incubator.
Short Circuit Current (ISC) Measurements
Snapwell inserts were mounted in Vertical Diffusion Chambers (Costar) and were bathed with continuously gassed Ringer solution (5% CO2 in O2; pH 7.4) maintained at 37° C. containing (in mM): 120 NaCl, 25 NaHCO3, 3.3 KH2PO4, 0.8 K2HPO4, 1.2 CaCl2, 1.2 MgCl2, and 10 glucose. The solution osmolarity was between 280 and 300 mOsmol/kg H2O for all physiological salt solutions used. Cells were voltage clamped to 0 mV (model EVC4000; WPI). RT was measured by applying a 1- or 2-mV pulse at 30-s intervals and calculating RT by Ohm's law. Data were recorded using a PowerLab workstation (ADInstruments).
Test compounds were prepared as a 10 mM stock solution in DMSO (95%). Serial 3-fold dilutions were freshly prepared in an appropriate vehicle (distilled H2O or Ringers solution). The initial concentration was added to the apical chamber as a 1000× concentrate in 5 μL, resulting in a final 1× concentration the 5 mL volume of the Ussing chamber. Subsequent additions of compound were added in a 3.3 μL volume of the 1000× serially diluted stock solution. At the completion of the concentration-response experiment, amiloride (10 μM) was added into the apical chamber to enable the total amiloride-sensitive current to be measured. An amiloride control IC50 was established at the start of each experiment.
Results are expressed as the mean % inhibition of the amiloride-sensitive ISC. […] Cell inserts were typically run in duplicate and the IC50 calculated on the mean % inhibition data.

[2] = Stability in human plasma; type: in vitro ADME; conditions: pooled human plasma (lithium heparin), 1 μM compound, 37° C., 1 hour incubation
Method: The stability of the compounds of the invention in human plasma may be measured as follows:
Stability in Human Plasma
Blood was taken from healthy volunteers in lithium heparin tubes and plasma was prepared by centrifugal separation of blood cells at 1500 g. Plasma from at least 3 individuals was pooled and used for compound stability determination.
Compounds were prepared in 100% DMSO at a concentration of 10 mM and serially diluted to a concentration of 100 μM. Incubations were performed at a final concentration of 1 μM and were initiated by addition of 3 μl of 100 μM compound stock solution into 297 μl plasma, pre-warmed in a water bath to 37° C., followed by brief vortex mixing. 50 μl aliquots of plasma were removed at 4 timepoints over a 1 hour incubation period and quenched immediately by protein precipitation achieved by addition of the aliquot of plasma to a pre-prepared 96 well plate containing 150 μl of acetonitrile containing an appropriate internal standard. Acetonitrile quenched samples were vortex mixed followed by centrifugation for 20 minutes at 1500 g to remove the precipitated proteins. Initial compound levels (at time=0 minutes) was established by spiking compound into pre-quenched plasma at the same concentration as used in the incubation. The supernatant was then removed, diluted 1:1 with water and analysed for compound remaining by liquid chromatography-tandem mass spectrometry (Waters Acquity HPLC, Applied Biosystems API4000). The plasma elimination rate constant of the compound was calculated by fitting the peak area ratio of compound:internal standard to an exponential decay function and the half life calculated by division of the natural log of 2 by the elimination rate constant (Microsoft Excel).

Structure (SMILES)	IC50 [1] [µM]	half-life at 1 μM [2] [min]
CCCN(CCC)C(=O)COC(=O)CCNS(=O)(=O)c1cccc(C(=O)N2CCC3(CC2)CN/C(=N\C(=O)c2nc(Cl)c(N)nc2N)N3)c1 [Example 1.0, 3-(3-{2-[(E)-3,5-Diamino-6-chloro-pyrazine-2-carbonylimino]-1,3,8-triaza-spiro[4.5]decane-8-carbonyl}-benzenesulfonylamino)-propionic acid dipropylcarbamoylmethyl ester succinate salt]	0.017	2
CN(CCO)C(=O)COC(=O)COc1ccc(CCC(=O)N2CCC3(CC2)CN/C(=N/C(=O)c2nc(Cl)c(N)nc2N)N3)cc1 [Example 1.1, [4-(3-{2-[(Z)-3,5-Diamino-6-chloro-pyrazine-2-carbonylimino]-1,3,8-triaza-spiro[4.5]dec-8-yl}-3-oxo-propyl)-phenoxy]-acetic acid [(2-hydroxy-ethyl)-methyl-carbamoyl]-methyl ester]	0.419	–
Nc1nc(N)c(C(=O)/N=C2\NCC3(CCN(C(=O)CCc4ccc(OCC(=O)OCC(=O)OC5CCCCC5)cc4)CC3)N2)nc1Cl [Example 1.2, [4-(3-{2-[(E)-3,5-Diamino-6-chloro-pyrazine-2-carbonylimino]-1,3,8-triaza-spiro[4.5]dec-8-yl}-3-oxo-propyl)-phenoxy]-acetic acid cyclohexyl oxycarbonylmethyl ester]	0.01	3
Nc1nc(N)c(C(=O)/N=C2\NCC3(CCN(C(=O)c4cccc(S(=O)(=O)NCCC(=O)OCC(=O)OC5CCCCC5)c4)CC3)N2)nc1Cl [Example 1.3, 3-(3-{2-[(E)-3,5-Diamino-6-chloro-pyrazine-2-carbonylimino]-1,3,8-triaza-spiro[4.5]decane-8-carbonyl}-benzenesulfonylamino)-propionic acid cyclohexyloxy carbonylmethyl ester]	0.003	4
CN(C)C(=O)COC(=O)COc1ccc(CCC(=O)N2CCC3(CC2)CN/C(=N\C(=O)c2nc(Cl)c(N)nc2N)N3)cc1 [Example 1.4, [4-(3-{2-[(E)-3,5-Diamino-6-chloro-pyrazine-2-carbonylimino]-1,3,8-triaza-spiro[4.5]dec-8-yl}-3-oxo-propyl)-phenoxy]-acetic acid dimethylcarbamoylmethyl ester]	0.302	–
CCCN(CCC)C(=O)COC(=O)COc1ccc(CCC(=O)N2CCC3(CC2)CN/C(=N\C(=O)c2nc(Cl)c(N)nc2N)N3)cc1 [Example 2.0, [4-(3-{2-[(E)-3,5-Diamino-6-chloro-pyrazine-2-carbonylimino]-1,3,8-triaza-spiro[4.5]dec-8-yl}-3-oxo-propyl)-phenoxy]-acetic acid dipropylcarbamoylmethyl ester]	0.032	1
CC(C)(C)OC(=O)COC(=O)COc1ccc(CCC(=O)N2CCC3(CC2)CN/C(=N\C(=O)c2nc(Cl)c(N)nc2N)N3)cc1 [Example 2.1, [4-(3-{2-[(E)-3,5-Diamino-6-chloro-pyrazine-2-carbonylimino]-1,3,8-triaza-spiro[4.5]dec-8-yl}-3-oxo-propyl)-phenoxy]-acetic acid tert-butoxycarbonylmethyl ester]	0.03	5
Nc1nc(N)c(C(=O)/N=C2\NCC3(CCN(C(=O)CCc4ccc(OCC(=O)OCC(=O)OCc5ccccc5)cc4)CC3)N2)nc1Cl [Example 2.2, [4-(3-{2-[(E)-3,5-Diamino-6-chloro-pyrazine-2-carbonylimino]-1,3,8-triaza-spiro[4.5]dec-8-yl}-3-oxo-propyl)-phenoxy]-acetic acid benzyloxycarbonylmethyl ester]	0.012	–
CCN(CC)C(=O)COC(=O)COc1ccc(CCC(=O)N2CCC3(CC2)CN/C(=N\C(=O)c2nc(Cl)c(N)nc2N)N3)cc1 [Example 2.3, [4-(3-{2-[(E)-3,5-Diamino-6-chloro-pyrazine-2-carbonylimino]-1,3,8-triaza-spiro[4.5]dec-8-yl}-3-oxo-propyl)-phenoxy]-acetic acid diethylcarbamoylmethyl ester]	0.089	–
Nc1nc(N)c(C(=O)/N=C2\NCC3(CCN(C(=O)CCc4ccc(OCC(=O)OCC(=O)N5CCCCC5)cc4)CC3)N2)nc1Cl [Example 2.4, [4-(3-{2-[(E)-3,5-Diamino-6-chloro-pyrazine-2-carbonylimino]-1,3,8-triaza-spiro[4.5]dec-8-yl}-3-oxo-propyl)-phenoxy]-acetic acid 2-oxo-2-piperidin-1-yl-ethyl ester]	0.11	–
